Like-named read-outs stand apart in the source and are kept apart here.
Assays:
[1] = tested on: Pyricularia oryzae Carvara KA301; experiment: whole plant or invertebrate; format: in vivo; conditions: for pest or weed control at 2 ppm / pest or weed control at 10 ppm / pest or weed control at 50 ppm / pest or weed control at 100 ppm: Pyricularia oryzae, read-out: RCB control value (C.V.); for RCB control value (C.V.): rice blast
Botrytis cinerae = experiment: Fungicidal activity against cucumber gray mold rot (CGM) disease, control value; format: in vivo; conditions: for pest or weed control at 100 ppm / CGM control value (C.V.): 100 ppm
Phytophthora infestans = experiment: whole plant or invertebrate; format: in vivo; conditions: for pest or weed control at 2 ppm / pest or weed control at 10 ppm / pest or weed control at 50 ppm / pest or weed control at 100 ppm: Phytophthora infestans, in Solanum lycopersicum, read-out: TLB control value (C.V.); for TLB control value (C.V.): tomato late blight
Puccinia recondita = experiment: Fungicidal activity against wheat leaf rust (WLR) disease, control value; format: in vivo; conditions: for pest or weed control at 2 ppm / pest or weed control at 10 ppm / pest or weed control at 50 ppm / pest or weed control at 100 ppm: read-out: WLR control value (C.V.)
Erysiphae graminis = experiment: Fungicidal activity against barley powdery mildew (BPM) disease, control value; format: in vivo; conditions: for pest or weed control at 2 ppm / pest or weed control at 10 ppm / pest or weed control at 50 ppm / pest or weed control at 100 ppm: 168 h, read-out: BPM control value (C.V.)
Rhizoctonia solani AG-1 = experiment: Fungicidal activity against rice sheath blight (RSB) disease, control value; conditions: for pest or weed control at 2 ppm / pest or weed control at 10 ppm / pest or weed control at 50 ppm / pest or weed control at 100 ppm: Rhizoctonia solani, AG1, in Oryza sativa, read-out: RSB control value (C.V.); for RSB control value (C.V.): 100 ppm, rice sheath blight
[2] = Botrytis, cucumber gray mold rot, read-out: CGM control value (C.V.)
[3] = Hordeum vulgare, 2 ppm, barley powdery mildew
[4] = Hordeum vulgare, 10 ppm, barley powdery mildew
[5] = Hordeum vulgare, 50 ppm, barley powdery mildew
[6] = Hordeum vulgare, 100 ppm, barley powdery mildew
[7] = Botrytis, read-out: CGM control value (C.V.)

| SMILES | pest or weed control at 2 ppm [1] | pest or weed control at 10 ppm [1] | pest or weed control at 50 ppm [1] | pest or weed control at 100 ppm [1] | pest or weed control at 2 ppm (Phytophthora infestans) | pest or weed control at 10 ppm (Phytophthora infestans) | pest or weed control at 50 ppm (Phytophthora infestans) | pest or weed control at 100 ppm (Phytophthora infestans) | pest or weed control at 2 ppm (Rhizoctonia solani AG-1) | pest or weed control at 10 ppm (Rhizoctonia solani AG-1) | pest or weed control at 50 ppm (Rhizoctonia solani AG-1) | pest or weed control at 100 ppm (Rhizoctonia solani AG-1) | pest or weed control at 100 ppm (Botrytis cinerae; [7]) | pest or weed control at 2 ppm (Puccinia recondita; Puccinia recondita, 2 ppm) | pest or weed control at 10 ppm (Puccinia recondita; Puccinia recondita, 10 ppm) | pest or weed control at 50 ppm (Puccinia recondita; Puccinia recondita, 50 ppm) | pest or weed control at 100 ppm (Puccinia recondita; Puccinia recondita, 100 ppm) | pest or weed control at 2 ppm (Erysiphae graminis; 2 ppm) | pest or weed control at 10 ppm (Erysiphae graminis; 10 ppm) | pest or weed control at 50 ppm (Erysiphae graminis; 50 ppm) | further results |
| --- | --- | --- | --- | --- | --- | --- | --- | --- | --- | --- | --- | --- | --- | --- | --- | --- | --- | --- | --- | --- | --- |
| CNC(=O)/C(=N/OC)c1ccccc1COc1cccc(C=C(Cl)Br)c1 [Example 16, (2E)-2-(2-((3-(2-bromo-2-chlorovinyl)phenoxy)methyl)phenyl)-2-methoxyimino-N-methylacetamide] | 100% | 100% | 100% | 100% | 93% | 95% | 100% | 100% | 95% | 98% | 100% | 100% |  |  |  |  |  |  |  |  | pest or weed control at 100 ppm (Botrytis cinerae; [2]): 65%; pest or weed control at 2 ppm (Puccinia recondita; 2 ppm, wheat leaf rust): 100%; pest or weed control at 10 ppm (Puccinia recondita; 10 ppm, wheat leaf rust): 100%; pest or weed control at 50 ppm (Puccinia recondita; 50 ppm, wheat leaf rust): 100%; pest or weed control at 100 ppm (Puccinia recondita; 100 ppm, wheat leaf rust): 100%; pest or weed control at 2 ppm (Erysiphae graminis; [3]): 100%; pest or weed control at 10 ppm (Erysiphae graminis; [4]): 100%; pest or weed control at 50 ppm (Erysiphae graminis; [5]): 100%; pest or weed control at 100 ppm (Erysiphae graminis; [6]): 100% |
| CO/N=C(/C(=O)OC)c1ccccc1COc1cccc(C=C(Br)Br)c1 [Example 5, methyl-(E)-2-(2-((3-(2,2-dibromovinyl)phenoxy)methyl)phenyl)-2-methoxyiminoacetate] | 90% | 97% | 100% | 100% |  |  | 55% | 93% |  |  |  | 32% |  |  |  |  |  |  |  |  | pest or weed control at 100 ppm (Botrytis cinerae; [2]): 34%; pest or weed control at 100 ppm (Puccinia recondita; 100 ppm, wheat leaf rust): 92%; pest or weed control at 100 ppm (Erysiphae graminis; [6]): 87% |
| CO/N=C(/C(=O)OC)c1ccccc1COc1ccc(C=C(Br)Br)cc1Br [Example 77, methyl-(E)-2-(2-((2-bromo-4-(2,2-dibromovinyl)phenoxy)methyl)phenyl)-2-methoxyiminoacetate] | 30% | 90% | 100% | 100% | 70% | 90% | 98% | 100% | 65% | 98% | 100% | 100% | 70% | 95% | 100% | 100% | 100% | 90% | 100% | 100% | pest or weed control at 100 ppm (Erysiphae graminis; 100 ppm): 100% |
| CNC(=O)/C(=N/OC)c1ccccc1CON=C(C)c1cccc(C=C(F)Cl)c1 [Example 32, (E)-2-[[[[[2-[3-(2-chloro-2-fluorovinyl)phenyl](1-methyl)methylidene]amino]oxy]methyl]phenyl]-2-methoxyimino-N-methylacetamide] |  |  |  |  |  |  |  |  |  |  |  |  |  |  |  |  |  |  |  |  | RCB control value (C.V.) ([1]; 50 ppm): 90%; RCB control value (C.V.) ([1]; 100 ppm): 97%; CGM control value (C.V.) (Botrytis cinerae; cucumber gray mold rot): 34%; TLB control value (C.V.) (Phytophthora infestans; 50 ppm): 55%; TLB control value (C.V.) (Phytophthora infestans; 100 ppm): 93%; WLR control value (C.V.) (Puccinia recondita; 100 ppm, wheat leaf rust): 82%; BPM control value (C.V.) (Erysiphae graminis; 100 ppm, barley powdery mildew): 80%; RSB control value (C.V.) (Rhizoctonia solani AG-1): 65% |
| CNC(=O)/C(=N/OC)c1ccccc1COc1ccc(C=C(Br)Br)cc1C [Example 66, (E)-2-(2-((4-(2,2-dibromovinyl)-2-methylphenoxy)methyl)phenyl)-2-methoxyimino-N-methylacetamide] | 60% | 90% | 100% | 100% | 75% | 90% | 98% | 100% | 65% | 98% | 100% | 100% | 45% | 95% | 100% | 100% | 100% | 97% | 100% | 100% | pest or weed control at 100 ppm (Erysiphae graminis; 100 ppm): 100% |
| CNC(=O)/C(=N/OC)c1ccccc1COc1ccc(C=C(Br)Br)cc1Cl [Example 64, (E)-2-(2-((4-(2,2-dibromovinyl)-2-chlorophenoxy)methyl)phenyl)-2-methoxyimino-N-methylacetamide] | 100% | 100% | 100% | 100% | 99% | 100% | 100% | 100% | 95% | 100% | 100% | 100% | 80% | 100% | 100% | 100% | 100% | 97% | 100% | 100% | pest or weed control at 50 ppm (Botrytis cinerae; Botrytis, 50 ppm, read-out: CGM control value (C.V.)): 40%; pest or weed control at 100 ppm (Erysiphae graminis; 100 ppm): 100% |
| CO/N=C(/C(=O)OC)c1ccccc1COc1ccc(C)cc1C=C(Br)Br [Example 69, methyl-(E)-2-(2-((2-(2,2-dibromovinyl)-4-methylphenoxy)methyl)phenyl)-2-methoxyiminoacetate] | 100% | 100% | 100% | 100% | 100% | 100% | 100% | 100% | 100% | 100% | 100% | 100% | 60% | 100% | 100% | 100% | 100% | 100% | 100% | 100% | pest or weed control at 100 ppm (Erysiphae graminis; 100 ppm): 100% |
| CNC(=O)/C(=N/OC)c1ccccc1CON=C(C)c1ccc(C=C(Br)Br)cc1 [Example 26, (E)-2-[[[[[2-[4-(2,2-dibromovinyl)phenyl](1-methyl)methylidene]amino]oxy]methyl]phenyl]-2-methoxyimino-N-methylacetamide] |  |  |  |  |  |  |  |  |  |  |  |  |  |  |  |  |  |  |  |  | RCB control value (C.V.) ([1]; 2 ppm): 90%; RCB control value (C.V.) ([1]; 10 ppm): 97%; RCB control value (C.V.) ([1]; 50 ppm): 100%; RCB control value (C.V.) ([1]; 100 ppm): 100%; CGM control value (C.V.) (Botrytis cinerae; cucumber gray mold rot): 7%; TLB control value (C.V.) (Phytophthora infestans; 2 ppm): 98%; TLB control value (C.V.) (Phytophthora infestans; 10 ppm): 100%; TLB control value (C.V.) (Phytophthora infestans; 50 ppm): 100%; TLB control value (C.V.) (Phytophthora infestans; 100 ppm): 100%; WLR control value (C.V.) (Puccinia recondita; 2 ppm, wheat leaf rust): 90%; WLR control value (C.V.) (Puccinia recondita; 10 ppm, wheat leaf rust): 90%; WLR control value (C.V.) (Puccinia recondita; 50 ppm, wheat leaf rust): 98%; WLR control value (C.V.) (Puccinia recondita; 100 ppm, wheat leaf rust): 100%; BPM control value (C.V.) (Erysiphae graminis; 2 ppm, barley powdery mildew): 99%; BPM control value (C.V.) (Erysiphae graminis; 10 ppm, barley powdery mildew): 100%; BPM control value (C.V.) (Erysiphae graminis; 50 ppm, barley powdery mildew): 100%; BPM control value (C.V.) (Erysiphae graminis; 100 ppm, barley powdery mildew): 100%; RSB control value (C.V.) (Rhizoctonia solani AG-1): 32% |
| CO/N=C(/C(=O)OC)c1ccccc1CON=C(C)c1cccc(C=C(F)Cl)c1 [Example 31, methyl-(E)-2-[[[[[2-[3-(2-chloro-2-fluorovinyl)phenyl](1-methyl)methylidene]amino]oxy]methyl]phenyl]-2-methoxyiminoacetate] |  |  |  |  |  |  |  |  |  |  |  |  |  |  |  |  |  |  |  |  | RCB control value (C.V.) ([1]; 50 ppm): 70%; RCB control value (C.V.) ([1]; 100 ppm): 95%; CGM control value (C.V.) (Botrytis cinerae; cucumber gray mold rot): 43%; TLB control value (C.V.) (Phytophthora infestans; 100 ppm): 60%; WLR control value (C.V.) (Puccinia recondita; 10 ppm, wheat leaf rust): 40%; WLR control value (C.V.) (Puccinia recondita; 50 ppm, wheat leaf rust): 90%; WLR control value (C.V.) (Puccinia recondita; 100 ppm, wheat leaf rust): 100%; BPM control value (C.V.) (Erysiphae graminis; 50 ppm, barley powdery mildew): 60%; BPM control value (C.V.) (Erysiphae graminis; 100 ppm, barley powdery mildew): 90%; RSB control value (C.V.) (Rhizoctonia solani AG-1): 30% |
| CO/N=C(/C(=O)OC)c1ccccc1COc1ccc(C=C(Cl)Cl)cc1 [Example 3, methyl-(E)-2-(2-((4-(2,2-dichlorovinyl)phenoxy)methyl)phenyl)-2-methoxyiminoacetate] | 30% | 90% | 100% | 100% | 0% | 35% | 95% | 98% |  |  |  | 60% |  |  |  |  |  |  |  |  | pest or weed control at 100 ppm (Botrytis cinerae; [2]): 50%; pest or weed control at 2 ppm (Puccinia recondita; 2 ppm, wheat leaf rust): 40%; pest or weed control at 10 ppm (Puccinia recondita; 10 ppm, wheat leaf rust): 90%; pest or weed control at 50 ppm (Puccinia recondita; 50 ppm, wheat leaf rust): 100%; pest or weed control at 100 ppm (Puccinia recondita; 100 ppm, wheat leaf rust): 100%; pest or weed control at 2 ppm (Erysiphae graminis; [3]): 20%; pest or weed control at 10 ppm (Erysiphae graminis; [4]): 50%; pest or weed control at 50 ppm (Erysiphae graminis; [5]): 95%; pest or weed control at 100 ppm (Erysiphae graminis; [6]): 95% |
